Consider 30 compounds from the NIST ThermoML archive (doi:10.1016/j.jct.2017.07.012).

The nature of the data set: activity coefficient (dimensionless); of the first substance listed, at infinite dilution; xn = mol fraction of the nth substance listed. The note with it: 101.33 kPa, Liquid, Chromatography, x1 = 0.

± gives the expanded uncertainty stated by the source.

On to `CO` [methanol] + CCCCn1cc[n+](C)c1.[O-][Cl+3]([O-])([O-])[O-], for which the activity coefficient was 1.07 ± 0.11 (303.15 K); 1.06 ± 0.11 (313.15 K); 1.05 ± 0.11 (323.15 K); 1.02 ± 0.1 (333.15 K); 1.01 ± 0.1 (343.15 K); 1 ± 0.1 (353.15 K).

Consider `CCc1ccccc1` [ethylbenzene] + CCCCn1cc[n+](C)c1.[O-][Cl+3]([O-])([O-])[O-], for which the activity coefficient by setting is: (323.15 K) 5.05 ± 0.53; (333.15 K) 5.11 ± 0.54; (343.15 K) 5.29 ± 0.56; (353.15 K) 5.35 ± 0.56.

Regarding `ClCCl` [dichloromethane] + CCCCn1cc[n+](C)c1.[O-][Cl+3]([O-])([O-])[O-], the activity coefficient is, setting by setting: (303.15 K) 0.84 ± 0.09; (313.15 K) 0.91 ± 0.09; (323.15 K) 0.96 ± 0.1; (333.15 K) 1.01 ± 0.1; (343.15 K) 1.1 ± 0.11; (353.15 K) 1.13 ± 0.12.

For the compound `C=Cc1ccccc1` [styrene] + CCCCn1cc[n+](C)c1.[O-][Cl+3]([O-])([O-])[O-], the activity coefficient is, setting by setting: (333.15 K) 2.29 ± 0.24; (343.15 K) 2.42 ± 0.25; (353.15 K) 2.5 ± 0.26.

As for `CC(C)CCO` [3-methylbutan-1-ol] + CCCCn1cc[n+](C)c1.[O-][Cl+3]([O-])([O-])[O-], the activity coefficient is, setting by setting: (333.15 K) 3.49 ± 0.37; (343.15 K) 3.21 ± 0.34; (353.15 K) 2.97 ± 0.31.

In the case of `CC(C)CO` [2-methyl-1-propanol] + CCCCn1cc[n+](C)c1.[O-][Cl+3]([O-])([O-])[O-], the activity coefficient came to 2.9 ± 0.3 (323.15 K), 2.67 ± 0.28 (333.15 K), 2.48 ± 0.26 (343.15 K) and 2.32 ± 0.24 (353.15 K).

As to `CCCCCCCC` [octane] + CCCCn1cc[n+](C)c1.[O-][Cl+3]([O-])([O-])[O-], the activity coefficient (303.15 K) was 109 ± 12; the activity coefficient (313.15 K) worked out at 111 ± 12; the activity coefficient (323.15 K) is 119 ± 12; the activity coefficient (333.15 K) stood at 119 ± 13; the activity coefficient (343.15 K) is 122 ± 13; the activity coefficient (353.15 K) was 127 ± 13.

As to `CCCCCCC` [heptane] + CCCCn1cc[n+](C)c1.[O-][Cl+3]([O-])([O-])[O-], the activity coefficient was determined as 85.9 ± 9.1 (303.15 K); 91.6 ± 9.7 (313.15 K); 99.1 ± 10 (323.15 K); 108 ± 11 (333.15 K); 115 ± 12 (343.15 K); 121 ± 13 (353.15 K).

Consider `Cc1ccccc1C` [1,2-dimethylbenzene] + CCCCn1cc[n+](C)c1.[O-][Cl+3]([O-])([O-])[O-], for which the activity coefficient is, setting by setting: (323.15 K) 4.09 ± 0.43; (333.15 K) 4.16 ± 0.44; (343.15 K) 4.27 ± 0.45; (353.15 K) 4.37 ± 0.46.

Turning to `Cc1cccc(C)c1` [1,3-dimethylbenzene] + CCCCn1cc[n+](C)c1.[O-][Cl+3]([O-])([O-])[O-], the activity coefficient is, setting by setting: (323.15 K) 4.99 ± 0.52; (333.15 K) 5.08 ± 0.53; (343.15 K) 5.28 ± 0.55; (353.15 K) 5.36 ± 0.56.

For `CCOC(C)=O` [ethyl acetate] + CCCCn1cc[n+](C)c1.[O-][Cl+3]([O-])([O-])[O-], the activity coefficient (303.15 K) was determined as 2.22 ± 0.23; the activity coefficient (313.15 K) was 2.31 ± 0.24; the activity coefficient (323.15 K) was determined as 2.46 ± 0.26; the activity coefficient (333.15 K) was found to be 2.54 ± 0.27; the activity coefficient (343.15 K) came to 2.69 ± 0.28; the activity coefficient (353.15 K) came out at 2.78 ± 0.29.

Turning to `c1ccccc1` [benzene] + CCCCn1cc[n+](C)c1.[O-][Cl+3]([O-])([O-])[O-], the activity coefficient worked out at 1.78 ± 0.19 (303.15 K); 1.82 ± 0.19 (313.15 K); 1.97 ± 0.21 (323.15 K); 2 ± 0.21 (333.15 K); 2.08 ± 0.22 (343.15 K); 2.17 ± 0.23 (353.15 K).

As to `Cc1ccc(C)cc1` [1,4-dimethylbenzene] + CCCCn1cc[n+](C)c1.[O-][Cl+3]([O-])([O-])[O-], the activity coefficient was determined as 4.82 ± 0.51 (323.15 K), 4.91 ± 0.52 (333.15 K), 5.13 ± 0.54 (343.15 K) and 5.21 ± 0.55 (353.15 K).

On to `O` [water] + CCCCn1cc[n+](C)c1.[O-][Cl+3]([O-])([O-])[O-], for which the activity coefficient runs as follows: (333.15 K) 1.02 ± 0.1; (343.15 K) 1.01 ± 0.1; (353.15 K) 1 ± 0.1.

For the compound `Cc1ccccc1` [toluene] + CCCCn1cc[n+](C)c1.[O-][Cl+3]([O-])([O-])[O-], the activity coefficient (313.15 K) stood at 2.96 ± 0.31; the activity coefficient (323.15 K) was 3.1 ± 0.33; the activity coefficient (333.15 K) amounted to 3.14 ± 0.33; the activity coefficient (343.15 K) is 3.29 ± 0.35; the activity coefficient (353.15 K) amounted to 3.38 ± 0.36.

For `ClC(Cl)Cl` [trichloromethane] + CCCCn1cc[n+](C)c1.[O-][Cl+3]([O-])([O-])[O-], the activity coefficient by setting is: (303.15 K) 0.78 ± 0.08; (313.15 K) 0.87 ± 0.09; (323.15 K) 0.93 ± 0.09; (333.15 K) 0.98 ± 0.1; (343.15 K) 1.1 ± 0.11; (353.15 K) 1.16 ± 0.12.

Take `CC1CCCCC1` [methylcyclohexane] + CCCCn1cc[n+](C)c1.[O-][Cl+3]([O-])([O-])[O-]: the activity coefficient by setting is: (303.15 K) 46.5 ± 4.9; (313.15 K) 46.7 ± 4.9; (323.15 K) 47 ± 5; (333.15 K) 47.3 ± 5; (343.15 K) 47.3 ± 5; (353.15 K) 47.8 ± 5.

Take `CC(C)=O` [acetone] + CCCCn1cc[n+](C)c1.[O-][Cl+3]([O-])([O-])[O-]: the activity coefficient by setting is: (303.15 K) 0.84 ± 0.09; (313.15 K) 0.91 ± 0.09; (323.15 K) 0.94 ± 0.1; (333.15 K) 0.98 ± 0.1; (343.15 K) 1.05 ± 0.11; (353.15 K) 1.08 ± 0.11.

Take `CCCCCC` [hexane] + CCCCn1cc[n+](C)c1.[O-][Cl+3]([O-])([O-])[O-]: the activity coefficient was 81.7 ± 8.6 (303.15 K); 89.2 ± 9.4 (313.15 K); 98 ± 10 (323.15 K); 107 ± 11 (333.15 K); 112 ± 12 (343.15 K); 118 ± 12 (353.15 K).

Turning to `CCCCO` [butan-1-ol] + CCCCn1cc[n+](C)c1.[O-][Cl+3]([O-])([O-])[O-], the activity coefficient by setting is: (333.15 K) 2.73 ± 0.29; (343.15 K) 2.49 ± 0.26; (353.15 K) 2.39 ± 0.25.

Turning to `ClC(Cl)(Cl)Cl` [tetrachloromethane] + CCCCn1cc[n+](C)c1.[O-][Cl+3]([O-])([O-])[O-], the activity coefficient reads like this: (303.15 K) 3.61 ± 0.38; (313.15 K) 3.93 ± 0.41; (323.15 K) 4.1 ± 0.43; (333.15 K) 4.22 ± 0.44; (343.15 K) 4.6 ± 0.48; (353.15 K) 4.67 ± 0.49.

On to `C1=CCCCC1` [cyclohexene] + CCCCn1cc[n+](C)c1.[O-][Cl+3]([O-])([O-])[O-], for which the activity coefficient reads like this: (303.15 K) 15.1 ± 1.6; (313.15 K) 14.8 ± 1.6; (323.15 K) 14.7 ± 1.6; (333.15 K) 14.6 ± 1.5; (343.15 K) 14.4 ± 1.5; (353.15 K) 14.2 ± 1.5.

`CCCO` [propan-1-ol] + CCCCn1cc[n+](C)c1.[O-][Cl+3]([O-])([O-])[O-]: the activity coefficient runs as follows: (323.15 K) 2.05 ± 0.22; (333.15 K) 1.99 ± 0.21; (343.15 K) 1.87 ± 0.2; (353.15 K) 1.82 ± 0.19.

In the case of `CC(C)O` [propan-2-ol] + CCCCn1cc[n+](C)c1.[O-][Cl+3]([O-])([O-])[O-], the activity coefficient stood at 2.27 ± 0.24 (303.15 K); 2.18 ± 0.23 (313.15 K); 2.06 ± 0.22 (323.15 K); 2.06 ± 0.22 (333.15 K); 1.93 ± 0.2 (343.15 K); 1.92 ± 0.2 (353.15 K).

Turning to `C1CCOC1` [tetrahydrofuran] + CCCCn1cc[n+](C)c1.[O-][Cl+3]([O-])([O-])[O-], the activity coefficient by setting is: (303.15 K) 1.5 ± 0.16; (313.15 K) 1.57 ± 0.16; (323.15 K) 1.67 ± 0.17; (333.15 K) 1.94 ± 0.2; (343.15 K) 1.94 ± 0.2; (353.15 K) 2.06 ± 0.22.

For the compound `C1COCCO1` [1,4-dioxane] + CCCCn1cc[n+](C)c1.[O-][Cl+3]([O-])([O-])[O-], the activity coefficient runs as follows: (323.15 K) 1 ± 0.1; (333.15 K) 1.02 ± 0.1; (343.15 K) 1.1 ± 0.11; (353.15 K) 1.14 ± 0.12.

On to `CCCCCCCCCC` [decane] + CCCCn1cc[n+](C)c1.[O-][Cl+3]([O-])([O-])[O-], for which the activity coefficient (303.15 K) worked out at 226 ± 24; the activity coefficient (313.15 K) came out at 219 ± 23; the activity coefficient (323.15 K) was 217 ± 23; the activity coefficient (333.15 K) stood at 204 ± 22; the activity coefficient (343.15 K) is 200 ± 21; the activity coefficient (353.15 K) was determined as 192 ± 20.

Consider `C1CCCCC1` [cyclohexane] + CCCCn1cc[n+](C)c1.[O-][Cl+3]([O-])([O-])[O-], for which the activity coefficient was 34.5 ± 3.6 (303.15 K); 34.6 ± 3.6 (313.15 K); 35.2 ± 3.7 (323.15 K); 35.4 ± 3.7 (333.15 K); 36.2 ± 3.8 (343.15 K); 37.5 ± 4 (353.15 K).

On to `CCO` [ethanol] + CCCCn1cc[n+](C)c1.[O-][Cl+3]([O-])([O-])[O-], for which the activity coefficient runs as follows: (303.15 K) 1.67 ± 0.17; (313.15 K) 1.59 ± 0.17; (323.15 K) 1.59 ± 0.17; (333.15 K) 1.5 ± 0.16; (343.15 K) 1.45 ± 0.15; (353.15 K) 1.44 ± 0.15.

Regarding `CCCCCO` [pentan-1-ol] + CCCCn1cc[n+](C)c1.[O-][Cl+3]([O-])([O-])[O-], the activity coefficient came out at 3.88 ± 0.41 (333.15 K), 3.55 ± 0.37 (343.15 K) and 3.23 ± 0.34 (353.15 K).
